# Test results taken from patent US20100105685A1, “S-Nitrosothiol Compounds and Related Derivatives” (Galleon Pharmaceuticals, Inc., priority 2006, published 2010).
# “Also recorded” adds a separate entry of the source.
# Legend:
# [1] = cited from earlier work
# [2] = test system: fentanyl-induced respiratory depression; assay: Fentanyl-induced respiratory depression model to assess restoration of ventilatory control; type: in vivo, Sprague-Dawley male rats; details: rats; for restoration of ventilatory control / reversing the fentanyl-induced respiratory depression: fentanyl 75 to 150 micrograms per kilogram, intravenous infusion
# [3] = test system: apnea episodes; details: cited from earlier work
compound,measurement,setting,value
CC(=O)N[C@@H](CS)C(=O)O [N-acetyl-L-cysteine],absorption after oral administration,[1],poorly absorbed
same,first pass metabolism by the liver,"[1]; oral administration, destroys most of the parent drug",extensive first pass metabolism
"O=C(O)CNC(=O)[C@H](CS)Nc1nccs1 [GLN 10,015]",restoration of ventilatory control / reversing the fentanyl-induced respiratory depression,[2],not be effective; also recorded: does not restore
CC(=O)Nc1nnc(S(N)(=O)=O)s1 [acetazolamide],apnea episodes after treatment,"[3]; central apnea patients, low doses, after one month of treatment (25.5 pre-treatment)",6.8
same,decrease in apnea episodes,"[3]; central apnea patients, low doses, after one month of treatment",73%
same,reduction in apnea episodes,[3]; patients that had predominantly obstructive sleep apnea,about 25%
"O=C(O)CCCCN[C@@H](CS)C(=O)O [GLN 10,013]",restoration of ventilatory control / reversing the fentanyl-induced respiratory depression,[2],successfully restores ventilatory control
same,"reversal of respiratory depression, acute phase","[2]; fentanyl-induced, acute phase (0 to 5 minutes)",reverse respiratory depression
same,"reversal of respiratory depression, chronic phases","[2]; fentanyl-induced, chronic phases (10 to 50 minutes)",reverse respiratory depression
